According to patent US20200024278A1, “COMPOSITION COMPRISING ANTIBIOTIC COMPOUND AND AN HETEROCYCLIC COMPOUND AND THEIR USE IN PREVENTING OR TREATING BACTERIAL INFECTIONS” (MUTABILIS, priority 2016, published 2020):
Where two headings read alike, the source gives them in different places.

Tests used:
Test in all cases: MIC, broth microdilution (CLSI), substance alone or ATB combined with compound at 4 or 8 μg/mL
ECL P99 = format: cell-based, E. cloacae; details: ECL P99; for MIC: Enterobacter cloacae
In short: (§1)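 Growth inhibition endpoint, read visually after 16-20 h at 35° C in ambient air. Cation-adjusted Mueller-Hinton broth, inoculum 5·10^5 CFU/mL, CLSI M7-A7 protocol.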

PAE 105250 = format: cell-based, P. aeruginosa; details: PAE 105250
In short: as §1

PAE UFR48 = format: cell-based, P. aeruginosa; details: PAE UFR48
In short: as §1

PAE UFR90 = format: cell-based, P. aeruginosa; details: PAE UFR90
In short: as §1

SAU 29213 = format: cell-based, S. aureus; details: SAU 29213
In short: as §1

SPN 49619 = format: cell-based, S. pneumoniae; details: SPN 49619
In short: as §1

[1] = Pseudomonas aeruginosa, antibiotic alone, read-out: MIC ATB alone

Compound: CC1(C)S[C@@H]2[C@H](NC(=O)[C@H](N)c3ccc(O)cc3)C(=O)N2[C@H]1C(=O)O [AMX, Amoxicillin, reference compound]
- MIC ATB combined with Example 1 @8 μg/ml (ECL P99; with Example 1 at 8 μg/ml): <0.031 µg/mL
- MIC ATB combined with Example 7 @8 μgml (ECL P99; with Example 7 at 8 μg/ml): >32 µg/mL
- MIC ATB combined with Example 9 @4 μg/ml (ECL P99; with Example 9 @4 μg/ml): <0.031 µg/mL
- MIC ATB combined with Example 9 @4 μg/ml (ECL P99; with Example 9 at 4 μg/ml): <0.031 µg/mL
- MIC ATB combined with Example 11 @8 μg/ml (ECL P99; with Example 11 at 8 μg/ml): <0.031 µg/mL
- MIC ATB combined with Example 12 @8 μg/ml (ECL P99; with Example 12 at 8 μg/ml): <0.031 µg/mL
- MIC ATB combined with Example 13 @8 μg/ml (ECL P99; with Example 13 at 8 μg/ml): >32 µg/mL
- MIC ATB combined with Example 14 @8 μg/ml (ECL P99; with Example 14 at 8 μg/ml): <0.031 µg/mL
- MIC ATB combined with Example 15 @4 μgml (ECL P99; with Example 15 at 4 μg/ml): <0.031 µg/mL
- MIC ATB combined with Example 16 @4 μg/ml (ECL P99; with Example 16 at 4 μg/ml): <0.031 µg/mL
- MIC (ECL P99; antibiotic alone, read-out: MIC ATB alone): > 1020 µg/mL
- MIC (ECL P99; substance alone, read-out: MIC): > 1020 µg/mL
- MIC ATB combined with Example 7 @8 μgml (PAE 105250; with Example 7 at 8 μg/ml): >32 µg/mL
- MIC ATB combined with Example 9 @4 μg/ml (PAE 105250; with Example 9 @4 μg/ml): >32 µg/mL
- MIC ATB combined with Example 9 @4 μg/ml (PAE 105250; with Example 9 at 4 μg/ml): >32 µg/mL
- MIC ATB combined with Example 11 @8 μg/ml (PAE 105250; with Example 11 at 8 μg/ml): >32 µg/mL
- MIC ATB combined with Example 12 @8 μg/ml (PAE 105250; with Example 12 at 8 μg/ml): >32 µg/mL
- MIC ATB combined with Example 13 @8 μg/ml (PAE 105250; with Example 13 at 8 μg/ml): >32 µg/mL
- MIC ATB combined with Example 14 @8 μg/ml (PAE 105250; with Example 14 at 8 μg/ml): >32 µg/mL
- MIC ATB combined with Example 15 @4 μgml (PAE 105250; with Example 15 at 4 μg/ml): >32 µg/mL
- MIC ATB combined with Example 16 @4 μg/ml (PAE 105250; with Example 16 at 4 μg/ml): >32 µg/mL
- MIC (PAE 105250; [1]): > 1020 µg/mL
- MIC ATB combined with Example 1 @8 μg/ml (PAE UFR48; with Example 1 @8 μg/ml): <0.031 µg/mL
- MIC ATB combined with Example 1 @8 μg/ml (PAE UFR48; with Example 1 at 8 μg/ml): <0.031 µg/mL
- MIC ATB combined with Example 7 @8 μgml (PAE UFR48; with Example 7 at 8 μg/ml): >32 µg/mL
- MIC ATB combined with Example 9 @4 μg/ml (PAE UFR48; with Example 9 @4 μg/ml): >32 µg/mL
- MIC ATB combined with Example 9 @4 μg/ml (PAE UFR48; with Example 9 at 4 μg/ml): >32 µg/mL
- MIC ATB combined with Example 11 @8 μg/ml (PAE UFR48; with Example 11 at 8 μg/ml): >32 µg/mL
- MIC ATB combined with Example 12 @8 μg/ml (PAE UFR48; with Example 12 at 8 μg/ml): >32 µg/mL
- MIC ATB combined with Example 13 @8 μg/ml (PAE UFR48; with Example 13 at 8 μg/ml): >32 µg/mL
- MIC ATB combined with Example 14 @8 μg/ml (PAE UFR48; with Example 14 at 8 μg/ml): >32 µg/mL
- MIC ATB combined with Example 15 @4 μgml (PAE UFR48; with Example 15 at 4 μg/ml): >32 µg/mL
- MIC ATB combined with Example 16 @4 μg/ml (PAE UFR48; with Example 16 at 4 μg/ml): >32 µg/mL
- MIC (PAE UFR48; [1]): > 1020 µg/mL
- MIC ATB combined with Example 1 @8 μg/ml (PAE UFR90; with Example 1 @8 μg/ml): <0.031 µg/mL
- MIC ATB combined with Example 1 @8 μg/ml (PAE UFR90; with Example 1 at 8 μg/ml): <0.031 µg/mL
- MIC ATB combined with Example 7 @8 μgml (PAE UFR90; with Example 7 at 8 μg/ml): >32 µg/mL
- MIC ATB combined with Example 9 @4 μg/ml (PAE UFR90; with Example 9 @4 μg/ml): >32 µg/mL
- MIC ATB combined with Example 9 @4 μg/ml (PAE UFR90; with Example 9 at 4 μg/ml): >32 µg/mL
- MIC ATB combined with Example 11 @8 μg/ml (PAE UFR90; with Example 11 at 8 μg/ml): >32 µg/mL
- MIC ATB combined with Example 12 @8 μg/ml (PAE UFR90; with Example 12 at 8 μg/ml): >32 µg/mL
- MIC ATB combined with Example 13 @8 μg/ml (PAE UFR90; with Example 13 at 8 μg/ml): >32 µg/mL
- MIC ATB combined with Example 14 @8 μg/ml (PAE UFR90; with Example 14 at 8 μg/ml): >32 µg/mL
- MIC ATB combined with Example 15 @4 μgml (PAE UFR90; with Example 15 at 4 μg/ml): >32 µg/mL
- MIC ATB combined with Example 16 @4 μg/ml (PAE UFR90; with Example 16 at 4 μg/ml): >32 µg/mL
- MIC (PAE UFR90; [1]): > 32 µg/mL
- MIC ATB combined with Example 1 @8 μg/ml (SAU 29213; with Example 1 @8 μg/ml): 0.25 µg/mL
- MIC ATB combined with Example 1 @8 μg/ml (SAU 29213; with Example 1 at 8 μg/ml): 0.25 µg/mL
- MIC ATB combined with Example 9 @4 μg/ml (SAU 29213; with Example 9 @4 μg/ml): <0.031 µg/mL
- MIC ATB combined with Example 9 @4 μg/ml (SAU 29213; with Example 9 at 4 μg/ml): <0.031 µg/mL
- MIC ATB combined with Example 11 @8 μg/ml (SAU 29213; with Example 11 at 8 μg/ml): <0.031 µg/mL
- MIC ATB combined with Example 12 @8 μg/ml (SAU 29213; with Example 12 at 8 μg/ml): <0.031 µg/mL
- MIC ATB combined with Example 14 @8 μg/ml (SAU 29213; with Example 14 at 8 μg/ml): <0.031 µg/mL
- MIC ATB combined with Example 15 @4 μgml (SAU 29213; with Example 15 at 4 μg/ml): <0.031 µg/mL
- MIC ATB combined with Example 16 @4 μg/ml (SAU 29213; with Example 16 at 4 μg/ml): <0.031 µg/mL
- MIC (SAU 29213; Staphylococcus aureus, antibiotic alone, read-out: MIC ATB alone): 2 µg/mL
- MIC ATB combined with Example 7 @8 μgml (SPN 49619; with Example 7 at 8 μg/ml): <=0.031 μg/mL
- MIC ATB combined with Example 9 @4 μg/ml (SPN 49619; with Example 9 @4 μg/ml): <0.031 µg/mL
- MIC ATB combined with Example 9 @4 μg/ml (SPN 49619; with Example 9 at 4 μg/ml): <0.031 µg/mL
- MIC ATB combined with Example 11 @8 μg/ml (SPN 49619; with Example 11 at 8 μg/ml): <0.031 µg/mL
- MIC ATB combined with Example 12 @8 μg/ml (SPN 49619; with Example 12 at 8 μg/ml): <0.031 µg/mL
- MIC ATB combined with Example 13 @8 μg/ml (SPN 49619; with Example 13 at 8 μg/ml): <=0.031 μg/mL
- MIC ATB combined with Example 14 @8 μg/ml (SPN 49619; with Example 14 at 8 μg/ml): <0.031 µg/mL
- MIC ATB combined with Example 15 @4 μgml (SPN 49619; with Example 15 at 4 μg/ml): <0.031 µg/mL
- MIC ATB combined with Example 16 @4 μg/ml (SPN 49619; with Example 16 at 4 μg/ml): <0.031 µg/mL
